Source: patent US7423053B2, “4-Aminothiazole derivatives” (Hoffmann-La Roche Inc., priority 2004, dated 2008)

Tests used:
Type in all cases: biochemical
Details in all cases: Rb substrate, ATP at 3x Km, Ki=IC50/(1+S/Km)
[1] = target: human cyclin B-CDK1 (Homo sapiens, UniProt P06493); test: CDK1 HTRF kinase assay (Ki measurement)
Description: (§1) This experiment was conducted using recombinant human cyclin B-CDK1, human cyclin E-CDK2 or human cyclin D1-CDK4 complexes. GST-cyclinE (GST-cycE), CDK2, GST-cyclinB (GST-cycB), CDK1, GST-CDK4 and cyclin D1 (cycD1) cDNA clones in baculovirus vectors were provided by Dr. W. Harper at the Baylor College of Medicine, Houston, Tex. Proteins were co-expressed in High Five™ insect cells and the complex was purified on glutathione Sepharose resin (Pharmacia, Piscataway, N.J.) as previously described (Harper, J. W. et al. Cell 1993, 75, 805-816). […]
(§2) The expression of the 62 Kd protein was under the control of an IPTG inducible promoter in an M15 E. coli strain. […] Purified Rb fusion protein stocks were quantitated for protein concentration, aliquoted, and stored at −70° C.
(§3) Using the protein constructs described above, CDK1, CDK2, and CDK4 HTRF assays were set up. These were done in 96-well format and read in 384-well plate format. […]
(§4) In the CDK4 assay, test compounds were diluted to 3× ntheir final concentrations in 25 mM Hepes, pH 7.0, 6.25 mM MgCl2, 1.5 mM DTT, 135 μM ATP. […] The plates were read using either ViewLux or Victor V readers (PerkinElmer Life Sciences) using an excitation wavelength of 340 nm and dual emission wavelengths of 615 nm and 665 nm. […]

[2] = target: human cyclin E-CDK2 (Homo sapiens, UniProt P24941); test: CDK2 HTRF kinase assay (Ki measurement)
Description: as §1, §2, §3, §4

[3] = target: human cyclin D1-CDK4 (Homo sapiens, UniProt P11802); test: CDK4 HTRF kinase assay (Ki measurement)
human cyclin D1-CDK4, sequence (P11802 whole entry): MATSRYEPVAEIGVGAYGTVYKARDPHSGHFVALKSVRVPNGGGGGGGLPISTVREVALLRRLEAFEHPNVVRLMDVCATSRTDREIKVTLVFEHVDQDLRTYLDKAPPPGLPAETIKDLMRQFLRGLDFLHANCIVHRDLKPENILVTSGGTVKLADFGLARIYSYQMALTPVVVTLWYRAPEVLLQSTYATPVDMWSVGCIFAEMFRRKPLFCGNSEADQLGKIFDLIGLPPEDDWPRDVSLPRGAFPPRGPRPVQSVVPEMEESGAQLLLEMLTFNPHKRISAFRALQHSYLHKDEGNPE
human cyclin D1-CDK4, sequence (P24385 whole entry partner): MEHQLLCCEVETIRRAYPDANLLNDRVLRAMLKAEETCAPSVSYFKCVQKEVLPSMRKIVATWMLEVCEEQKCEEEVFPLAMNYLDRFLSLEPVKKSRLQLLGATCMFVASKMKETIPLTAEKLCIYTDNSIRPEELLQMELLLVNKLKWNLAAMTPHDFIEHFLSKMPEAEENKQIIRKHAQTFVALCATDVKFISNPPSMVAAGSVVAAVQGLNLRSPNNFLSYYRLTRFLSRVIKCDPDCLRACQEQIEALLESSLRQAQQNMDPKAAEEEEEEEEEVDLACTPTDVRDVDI
Description: as §1, §2, §3, §4

human cyclin B-CDK1, sequence (P06493 whole entry): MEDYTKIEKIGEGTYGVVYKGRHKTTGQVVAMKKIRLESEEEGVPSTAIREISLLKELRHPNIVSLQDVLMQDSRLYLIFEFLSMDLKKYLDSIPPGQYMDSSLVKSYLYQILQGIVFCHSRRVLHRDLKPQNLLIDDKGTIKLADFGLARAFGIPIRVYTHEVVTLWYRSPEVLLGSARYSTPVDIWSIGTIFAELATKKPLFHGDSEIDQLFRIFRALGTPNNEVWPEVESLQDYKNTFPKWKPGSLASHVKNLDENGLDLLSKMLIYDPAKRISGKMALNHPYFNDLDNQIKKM
human cyclin B-CDK1, sequence (P14635 whole entry partner): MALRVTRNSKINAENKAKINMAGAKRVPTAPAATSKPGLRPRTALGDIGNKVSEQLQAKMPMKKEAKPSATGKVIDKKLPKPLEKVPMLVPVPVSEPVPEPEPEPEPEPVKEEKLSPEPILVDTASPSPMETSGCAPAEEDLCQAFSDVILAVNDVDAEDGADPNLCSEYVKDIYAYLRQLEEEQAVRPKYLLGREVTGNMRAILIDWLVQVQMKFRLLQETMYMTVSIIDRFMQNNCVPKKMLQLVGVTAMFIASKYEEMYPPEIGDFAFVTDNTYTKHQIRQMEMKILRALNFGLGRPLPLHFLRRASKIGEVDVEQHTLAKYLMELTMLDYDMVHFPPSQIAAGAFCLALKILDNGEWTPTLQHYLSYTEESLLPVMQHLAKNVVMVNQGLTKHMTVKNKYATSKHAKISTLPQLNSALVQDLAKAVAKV

Ki [1] | Ki [2] | Ki [3] | Structure (SMILES)
1 nM | 1 nM | 2 nM | COc1ccc(F)c(F)c1C(=O)c1sc(NC2CCN(S(C)(=O)=O)CC2)nc1N [Example 14, [4-Amino-2-(1-methanesulfonylpiperidin-4-ylamino)thiazol-5-yl]-(2,3-difluoro-6-methoxyphenyl)methanone]
3 nM | 5 nM | 6 nM | CS(=O)(=O)N1CCC(Nc2nc(N)c(C(=O)c3c(F)cccc3F)s2)CC1 [Example 17, [4-Amino-2-(1-methanesulfonyl-piperidin-4-ylamino)thiazol-5-yl]-(2,6-difluorophenyl)methanone]
